Reference: ChEMBL document CHEMBL1201862, “PubChem BioAssay data set” (2004)
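Five compound concentrations were applied to cells in 96-well plates for 48 hours; endpoints were derived by simple linear interpolation of the resulting dose-response curve. GI50 = concentration required for 50% inhibition of growth.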 Active and inactive are the calls of the source. Rule as the data show it: active = GI50 up to about 1.1 µM and inactive = higher.

Columns and labels:
Test in all cases: growth of human tumour cells (NCI), 48 h
[1] = test system: 786-0
[2] = test system: A498
[3] = test system: A549
[4] = test system: ACHN
[5] = test system: BT-549
[6] = test system: DU-145
[7] = test system: EKVX
[8] = test system: HCT-116
[9] = test system: HCT-15
[10] = test system: HL-60
[11] = test system: HOP-62
[12] = test system: HOP-92
[13] = test system: HT-29
[14] = test system: Hs-578T
[15] = test system: IGROV-1
[16] = test system: K562
[17] = test system: KM12
[18] = test system: LOX IMVI
[19] = test system: M14
[20] = test system: MCF7
[21] = test system: MDA-MB-231
[22] = test system: MDA-MB-435
[23] = test system: MDA-N
[24] = test system: MOLT-4
[25] = test system: Malme-3M
[26] = test system: NCI-H226
[27] = test system: NCI-H460
[28] = test system: NCI-H522
[29] = test system: OVCAR-3
[30] = test system: OVCAR-4
[31] = test system: OVCAR-5
[32] = test system: OVCAR-8
[33] = test system: PC-3
[34] = test system: RPMI-8226
[35] = test system: SF-268
[36] = test system: SF-295
[37] = test system: SF-539
[38] = test system: SK-MEL-28
[39] = test system: SK-MEL-2
[40] = test system: SK-OV-3
[41] = test system: SN12C
[42] = test system: SNB-19
[43] = test system: SNB-75
[44] = test system: SR
[45] = test system: SW-620
[46] = test system: T47D
[47] = test system: TK-10
[48] = test system: U-251
[49] = test system: UACC-257
[50] = test system: UACC-62
[51] = test system: UO-31
[52] = test system: COLO 205
[53] = test system: NCI/ADR-RES
[54] = test system: SK-MEL-5

Measured: GI50

O=C(O)CN1C(=O)C(Cc2ccc(O)cc2)N=C(c2cccc(O)c2)c2ccccc21 (stereo not given)
> 100 µM: [9]
inactive: [1] > 100 µM | [2] 12 µM | [3] > 100 µM | [4] > 100 µM | [5] > 100 µM | [6] > 100 µM | [7] > 100 µM | [8] > 100 µM | [10] > 100 µM | [11] > 100 µM | [12] > 100 µM | [13] > 100 µM | [14] > 100 µM | [15] > 100 µM | [16] > 100 µM | [17] > 100 µM | [18] > 100 µM | [19] > 100 µM | [20] > 100 µM | [21] > 100 µM | [22] > 100 µM | [23] 11.5 µM | [24] > 100 µM | [25] > 100 µM | [26] > 100 µM | [27] > 100 µM | [28] 80.4 µM | [29] > 100 µM | [30] > 100 µM | [31] > 100 µM | [32] > 100 µM | [33] > 100 µM | [34] > 100 µM | [35] > 100 µM | [36] > 100 µM | [37] > 100 µM | [38] > 100 µM | [39] > 100 µM | [40] > 100 µM | [41] 19 µM | [42] > 100 µM | [43] 40 µM | [44] > 100 µM | [45] > 100 µM | [46] > 100 µM | [47] > 100 µM | [48] > 100 µM | [49] > 100 µM | [50] > 100 µM | [51] > 100 µM

CCC1C(c2cc(OC)c(OC)c(OC)c2)c2cc3c(cc2OC1N1CCOCC1)OCO3 (stereo not given)
inactive: [1] 11.6 µM | [3] 4.36 µM | [4] 3.99 µM | [5] 2.99 µM | [52] 4.22 µM | [6] 5.33 µM | [7] 14.2 µM | [8] 3.68 µM | [11] 4.01 µM | [12] 10.8 µM | [13] 2.73 µM | [14] 3.02 µM | [15] 3.9 µM | [18] 2.48 µM | [19] 4.12 µM | [20] 2.84 µM | [21] 15.8 µM | [24] 1.88 µM | [25] 13.2 µM | [26] 7.98 µM | [27] 3.4 µM | [28] 4.95 µM | [53] 5.61 µM | [29] 4.31 µM | [30] 2.12 µM | [31] 2.29 µM | [32] 3.93 µM | [33] 2.02 µM | [35] 10.5 µM | [36] 2.79 µM | [39] 14.7 µM | [54] 1.44 µM | [40] 4.88 µM | [41] 8.15 µM | [42] 4.14 µM | [43] 9.4 µM | [44] 3.18 µM | [45] 1.98 µM | [46] 10.5 µM | [49] 14.6 µM | [50] 6.08 µM | [51] 3.88 µM
3.08 µM: [9]
active: [23] 0.977 µM
